Entries after “also recorded” stand apart in the source; their conditions may differ.
Columns and labels:
[1] = target: T1, recombinant tau oligomers (TauO) (Homo sapiens, UniProt P10636); assay: Dot blot of recombinant tau oligomers with and without compounds; assay type: biochemical; conditions: curcumin
T1 construct: made in house
Protocol: The dot blot assay was performed as previously described (Lasagna-Reeves, Castillo-Carranza et al. 2010), to detect tau oligomers in the absence and presence of small molecules. Briefly, 1.5 μl of each end-product reaction was applied onto nitrocellulose membranes and then blocked with 10% nonfat milk in TBS-T overnight at 4° C. Next day, membranes were probed with T22 (1:250) for immunoreactivity with tau oligomers and Tau5 (1:10000) for total tau, diluted in 5% nonfat milk for 1 hour at RT. Membranes were then washed three time with TBS-T and incubated with horseradish peroxidase-conjugated IgG anti-rabbit (1:10000) and anti-mouse (1:10000) secondary antibodies to detect, T22 and Tau5, respectively. Blots were then washed three times in TBS-T and exposed to ECL plus (GE Healthcare) was used for signal detection. Densitometric analysis of each band was quantified using Image J.
Compounds were dissolved in ETOH 75%/DMSO (5:1) at a final concentration of 5 mM and diluted in 1× PBS or ddH2O for incubation or toxicity assay (final concentration 5 μM). […]
Densitometric analysis of each band was quantified using Image J and analyzed by two-way ANOVA followed by Dunnett's multiple comparisons test, performed using GraphPad Prism 6.01.

[2] = in vivo; cited from earlier work

T1 sequence (P10636 1-441 isoform P10636-8): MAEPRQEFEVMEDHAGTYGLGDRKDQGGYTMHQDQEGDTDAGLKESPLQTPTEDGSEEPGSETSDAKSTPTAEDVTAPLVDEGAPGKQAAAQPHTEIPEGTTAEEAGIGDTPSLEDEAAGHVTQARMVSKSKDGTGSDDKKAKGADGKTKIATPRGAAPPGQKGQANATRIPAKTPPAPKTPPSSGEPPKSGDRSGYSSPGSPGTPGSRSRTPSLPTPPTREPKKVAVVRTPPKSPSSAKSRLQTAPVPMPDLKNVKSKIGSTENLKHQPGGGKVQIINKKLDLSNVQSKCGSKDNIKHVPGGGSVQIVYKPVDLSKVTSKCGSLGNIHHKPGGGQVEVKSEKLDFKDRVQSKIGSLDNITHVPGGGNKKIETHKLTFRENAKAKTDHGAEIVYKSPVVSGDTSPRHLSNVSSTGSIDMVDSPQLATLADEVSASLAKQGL

In the case of COc1cc(/C=C/C(=O)CC(=O)/C=C/c2ccc(O)c(OC)c2)ccc1O [curcumin], the “oligomeric tau level, dot blot” value [1] is listed as “decreased levels of oligomeric tau; also recorded: significant decrease in oligomers” and the bioavailability [2] is listed as “low brain bioavailability following oral administration”.
